Test results reported in patent US11351275B2, “Metal complexes with bisphophonate or pyrophosphate useful as imaging agents” (Duke University, priority 2015, dated 2022).
Each block holds one molecule with its values, some of them ahead of it.

Tests used:
4T1 tumor = assay: Dynamic contrast enhancement of 4T1 tumor after i.v. administration; assay type: in vivo; conditions: pilot data, versus paramagnetic coordination complex alone
Experimental: FIG. 5. Dynamic contrast enhancement of 4T1 tumor after i.v. admin of 1-hydroxybisphosphonate:Mn complex linked to HSP90 inhibitor as in Scheme 1C, 25 mg/kg. Graph on left depicts relative change in T1 enhancement in tumors after labeled drug (n=5) and after Mn:ETID complex alone (n=6).
Several synthetic strategies were used for labeling small molecule drugs either directly or via polyethyleneglycol (PEG) linkers. Two lead complexes, the first with a medronate analogue (Scheme 1B) via the amine-terminated PEG linker, and the second an etidronate analogue coupled through the COOH-terminated PEG linker (Scheme 1C), have now been synthesized, characterized and studied preliminarily in vivo.

[1] = In vivo MR imaging (biodistribution) after i.v. administration of Mn complexes; parameters: species or system mouse
Experimental: FIG. 4A. In vivo MRI in control mouse after i.v. administration of MnNTA.
FIG. 4B. MRI after i.v. administration of Mn:ETID (50 μL of 40 mM solution).
In vivo behavior was tested of two relatively strong (log K1>7) ligands for Mn(II) chelation, nitrilotriacetic acid (NTA), closely related to EDTA, and […] (3,4-DBA).
This in vivo behavior was also what is observed for the FDA-approved agent Teslascan. In the past, development of paramagnetic Mn complexes for MRI has been challenged by the inherent coordination lability of Mn(II) (e.g., Irving Williams series), resulting in the propensity of Mn(II) to be trans-metallated by other endogenous metals such as zinc in vivo. The only FDA-approved approved Mn(II) PM complex for MRI was Teslascan, which has now been discontinued. […] Contrast enhancement was therefore based on free Mn and confined to the liver.
Enhancement of the bowel is also noted but more variable, believed to represent elimination of the coordination complex from the gallbladder into the small intestine. […]
Finally, it is worth noting that free Mn is believed to be toxic neurologically if allowed to accumulate to high concentrations in certain neuronal populations. […] Since Mn accumulation in tissues is readily visualized with MRI, however, selective delivery of Mn-containing agents is easily monitored. […]

[2] = FDA-approved Mn(II) agent, prior experience; cited from earlier work
[3] = EDTA reference value in competition experiments; cited from earlier work
[4] = identical field strength (7T), commercial Gd(III) agent; cited from earlier work

SMILES: Cc1nn(-c2ccc(C(N)=O)c(NCCCOCCOCCOCCOCCOCCCNC(=O)CC(P(=O)(O)O)P(=O)(O)O)c2)c2c1C(=O)CC(C)(C)C2 [Scheme 1B]
enhancement in 4T1 tumors (4T1 tumor): progressive accumulation of enhancement in 4T1 tumors that is greater than what is seen for the paramagnetic coordination complex alone

SMILES: Cc1nn(-c2ccc(C(N)=O)c(NCCCOCCOCCOCCOCCOCCCC(=O)NCCCC(O)(P(=O)(O)O)P(=O)(O)O)c2)c2c1C(=O)CC(C)(C)C2 [Scheme 1C]
enhancement in 4T1 tumors (4T1 tumor): progressive accumulation of enhancement in 4T1 tumors that is greater than what is seen for the paramagnetic coordination complex alone

cardiac enhancement ([1]; after i.v. administration, indicates free Mn released into blood pool): cardiac enhancement was also seen
SMILES: O=C(O)CN(CC(=O)O)CC(=O)O [NTA, nitrilotriacetic acid]
biodistribution on in vivo MR imaging ([1]; mouse, in vivo, iv): consistent with release of free Mn and hepatocellular uptake

SMILES: Cc1ncc(COP(=O)([O-])[O-])c(CN(CCN(CC(=O)[O-])Cc2c(COP(=O)([O-])[O-])cnc(C)c2[O-])CC(=O)[O-])c1[O-].[H+].[H+].[H+].[Mn+2].[Na+].[Na+].[Na+] [Teslascan]
in vivo distribution behaviour [2]: immediately distributed to the liver, releasing free Mn

SMILES: O=C(O)CN(CCN(CC(=O)O)CC(=O)O)CC(=O)O [EDTA]
log K1 [3]: 26

SMILES: O=C([O-])CN1CCN(CC(=O)[O-])CCN([C@H](CO)[C@H](O)CO)CCN(CC(=O)[O-])CC1.[Gd+3] (racemic) [gadobutrol]
r1 (relaxivity stated as equivalent) [4]: 5.2 mM⁻¹ s⁻¹
